Target: Dipeptidyl peptidase 4 (Homo sapiens, UniProt P27487)
Test: Inhibition of DPP4 (unknown origin) assessed as hydrolysis rate using Gly-pro-p-nitroanilide as substrate measured after 20 mins incubation by fluorometric assay

Dipeptidyl peptidase 4, sequence (P27487 whole entry): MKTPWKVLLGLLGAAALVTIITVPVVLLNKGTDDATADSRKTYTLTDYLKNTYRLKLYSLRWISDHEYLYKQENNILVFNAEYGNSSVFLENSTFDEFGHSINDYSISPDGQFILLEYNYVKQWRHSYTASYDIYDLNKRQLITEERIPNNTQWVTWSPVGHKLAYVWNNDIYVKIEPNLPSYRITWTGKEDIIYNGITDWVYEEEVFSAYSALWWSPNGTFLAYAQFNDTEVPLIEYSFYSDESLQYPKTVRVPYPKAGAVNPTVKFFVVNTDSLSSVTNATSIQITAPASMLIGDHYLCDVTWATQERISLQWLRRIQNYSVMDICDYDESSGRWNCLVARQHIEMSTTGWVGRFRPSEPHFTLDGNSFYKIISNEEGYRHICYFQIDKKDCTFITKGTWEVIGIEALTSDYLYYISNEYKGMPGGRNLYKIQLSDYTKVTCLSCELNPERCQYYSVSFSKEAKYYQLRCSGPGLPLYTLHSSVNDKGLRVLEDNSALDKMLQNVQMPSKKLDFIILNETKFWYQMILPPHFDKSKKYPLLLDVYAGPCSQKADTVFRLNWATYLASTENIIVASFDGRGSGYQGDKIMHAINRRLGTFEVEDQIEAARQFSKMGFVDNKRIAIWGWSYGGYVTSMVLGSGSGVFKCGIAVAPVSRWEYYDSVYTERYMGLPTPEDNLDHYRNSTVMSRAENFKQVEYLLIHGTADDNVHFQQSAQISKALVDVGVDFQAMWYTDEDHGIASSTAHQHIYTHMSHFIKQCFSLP

Row | Structure (SMILES) | IC50
1 | CC1=C(CC(=O)N2CCCC2C#N)C(C)NC(=O)N1 (stereo not given) | 1030 nM
2 | CC1=C([N+](=O)[O-])C(c2ccc(F)c(F)c2)N=C(N)N1C(=O)CN1CCCC1C#N (stereo not given) | 710 nM
3 | CC1=C(CC(=O)N2CCCC(N)C2)C(C)NC(=O)N1 (stereo not given) | 1190 nM
4 | CC1=C(C(=O)O)C(c2ccc(F)c(F)c2)N=C(N)N1C(=O)CN1CCC[C@H]1C(=O)O (stereo not given in full) | 1060 nM
5 | CC1=C(CC(=O)N2CCCC2C#N)C(c2ccc(F)c(F)c2)NC(=O)N1 (stereo not given) | 266 nM
6 | CC1=C(CC(=O)N2Cc3cn(S(C)(=O)=O)nc3C2)C(c2ccc(F)c(F)c2)NC(=O)N1 (stereo not given) | 478 nM
7 | CC1=C([N+](=O)[O-])C(c2ccc(F)c(F)c2)N=C(N)N1C(=O)CN1CCCC(N)C1 (stereo not given) | 821 nM
8 | CC1=C([N+](=O)[O-])C(c2ccc(F)c(F)c2)N=C(N)N1C(=O)CN1CCC[C@H]1C(=O)O (stereo not given in full) | 2540 nM
9 | Cc1nc(N2CCCC(N)C2)nc(C)c1CC(=O)O (stereo not given) | 1400 nM
10 | CC1=C(CC(=O)N2CCn3c(nnc3C(F)(F)F)C2)C(c2ccc(F)c(F)c2)NC(=O)N1 (stereo not given) | 1060 nM
